# Experimental data: paper PMC5590477, “Biotinylated N-Acetyllactosamine- and N,N-Diacetyllactosamine-Based Oligosaccharides as Novel Ligands for Human Galectin-3” (Bioengineering, 2017)
# Values joined by “and” are separate entries in the source; they are usually repeats but may differ in a detail not shown here. Equal values may be shown once.
# How the values were obtained:
# [1] = molecular target: T1, human His6Gal-3 (Homo sapiens, UniProt P17931); experiment: ELISA-type binding of Gal-3 to immobilized glycans and neo-glycoproteins; details: for Gal-3 binding to immobilized tetrasaccharide (in words): glycan (5 nmol) immobilized on aminoreactive surface; for selectivity for Gal-3 binding compared with Gal-1 (in words): immobilized glycans, 1 µM protein concentration
# T1 construct: made in house; host or cells: Escherichia coli Rosetta (DE3) pLysS
# T1 sequence (P17931 whole entry): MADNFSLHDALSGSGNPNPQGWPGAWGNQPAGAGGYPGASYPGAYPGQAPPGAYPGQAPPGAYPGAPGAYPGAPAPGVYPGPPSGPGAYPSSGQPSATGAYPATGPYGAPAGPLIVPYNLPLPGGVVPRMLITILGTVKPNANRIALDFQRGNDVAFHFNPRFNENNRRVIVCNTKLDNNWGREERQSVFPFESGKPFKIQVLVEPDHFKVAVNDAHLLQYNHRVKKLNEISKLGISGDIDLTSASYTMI
# Description: (§1) The synthesized glycans and neo-glycoproteins were analyzed for binding of Gal-3 and Gal-1 in 96-well microtiter plate formats. Glycans 11 and 12, as well as the corresponding LacNAc-LacNAc-linker-NH2 1a and LacdiNAc-LacNAc-linker-NH2 2a (deprotected forms of 1 and 2) were immobilized via the amino group in aminoreactive microtiter plates (Immobilizer Amino, Nunc, Wiesbaden, Germany). The immobilization of 5 nmol glycan in sodium carbonate buffer (100 mM, pH 9.6) was done overnight. For immobilizing neo-glycoproteins, 5 pmol protein were incubated in PBS (pH 7.5) in MaxiSorp microtiter plates (Nunc) overnight. Wells were then washed with PBS-Tween (0.05% (v/v)) and blocked with 2% BSA in PBS followed by incubation for one hour with galectins diluted in EPBS. Incubation with anti-His6-peroxidase (Roche) was done subsequently. Microtiter plates were read out at 495 nm after conversion of OPD substrate (o-phenylenediamine, Dako, Hamburg, Germany). Measured data were analyzed using Sigma Plot (Systat software GmbH, Erkrath, Germany).
# [2] = molecular target: T1, human His6Gal-3; experiment: Competitive inhibition of Gal-3 binding to immobilized asialofetuin (ASF), ELISA-type; details: for Relative Potency: from IC50, relative to free tetrasaccharide 6 (13 series) or 7 (14 series); for IC50: inhibition of Gal-3 binding to immobilized ASF (5 pmol), 1 h in PBS; for Relative Potency per Glycan: inhibitory potency per glycan, relative to 6 (13 series) or 7 (14 series)
# Description: Neo-glycoproteins 13b, 13d, 13e and 14b, 14d, 14e, as well as glycans 1, 2, 6 and 7 were used in a competitive inhibition assay. Asialofetuin (ASF, 5 pmol in PBS) as the standard glycoprotein was immobilized overnight in microtiter plates (MaxiSorp, Nunc). After blocking as described before, different concentrations of inhibitor and His6Gal-3 were simultaneously incubated for one hour in PBS. Residual bound galectin was detected as described above. Evaluation of the measured data was done using Sigma Plot. All assays were reproduced in at least three independent measurements.
# [3] = molecular target: T1, human His6Gal-3; experiment: Surface plasmon resonance with immobilized Gal-3; format: binding; details: SPR, ligand in flow (20 µL/min) over immobilized Gal-3, one concentration, fit with Scrubber2; read-out: Apparent KD
# Description: SPR spectroscopy was done with Reichert SR7500DC System (XanTec bioanalytics, Düsseldorf, Germany) and carboxymethyldextran hydrogel sensor chips complexed with Ni^2+ ions (200M, XanTec bioanalytics). These surfaces allow reversible immobilization of His6-tagged proteins. Human His6Gal-3 (5 pmol in EPBS) was immobilized on the sample channel with a flowrate of 10 µL/min after 5 mM NiCl2 solution was injected. The reference channel stayed untreated.
# The binding experiments were carried out with a flow rate of 20 µL/min by injecting neo-glycoproteins 13a–f and 14a–f (2 pmol in PBS) and recently synthesized neo-glycoproteins 15a–f and 16a–f (2 pmol in PBS), as well as BSA and ASF as the control. The dissociation time was three minutes. Between the measurements, the surface was regenerated with 0.5 M Na EDTA (pH 8.5) to remove Ni^2+ together with Gal-3. Each cycle started with NiCl2 followed by Gal-3 application.
# The measured data were subtracted by reference values and analyzed using Integrated SPRAutolink (Reichert technologies, Depew, NY, USA) and Scrubber2 (version 2.0c, BioLogic Software, Campbell ACT, Australia).
# [4] = molecular target: T2, human His6Gal-1C2S (Homo sapiens, UniProt P09382, C3S); experiment: ELISA-type binding of Gal-1 to immobilized glycans and neo-glycoproteins; details: 1 µM Gal-1, immobilized ligand 5 pmol per well
# T2 construct: made in house; host or cells: Escherichia coli Rosetta (DE3) pLysS
# T2 sequence (P09382 whole entry C3S): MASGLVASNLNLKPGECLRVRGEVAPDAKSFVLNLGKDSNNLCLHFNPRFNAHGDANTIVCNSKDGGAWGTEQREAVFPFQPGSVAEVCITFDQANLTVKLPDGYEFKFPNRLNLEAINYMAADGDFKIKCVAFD
# Description: as §1
compound,measurement,setting,value
CC(=O)N[C@@H]1[C@@H](O)[C@H](O[C@@H]2O[C@H](CO)[C@H](O)[C@H](O[C@@H]3O[C@H](CO)[C@@H](O[C@@H]4O[C@H](CNNC(=O)CCCCCNC(=O)CCCC[C@@H]5SCC6NC(=O)NC65)[C@H](O)[C@H](O)[C@H]4O)[C@H](O)[C@H]3NC(C)=O)[C@H]2O)[C@@H](CO)O[C@H]1NC(=S)NCCN (some centres unmarked) [Compound 8],Gal-3 binding to immobilized tetrasaccharide (in words),[1],high binding signals
same,selectivity for Gal-3 binding compared with Gal-1 (in words),[1],high selectivity
LacNAc-LacNAc-linker-NH2 [Compound 1a],Gal-3 binding to immobilized tetrasaccharide (in words),[1],rather weak
LacdiNAc-LacNAc-linker-NH2 [Compound 2a],Gal-3 binding to immobilized tetrasaccharide (in words),[1],essentially no binding
"CC(=O)N[C@@H]1[C@@H](O)[C@H](O[C@@H]2O[C@H](CO)[C@H](O)[C@H](O[C@@H]3O[C@H](CO)[C@@H](O[C@@H]4O[C@H](CNNC(=O)CCCCCNC(=O)CCCC[C@@H]5SCC6NC(=O)NC65)[C@H](O)[C@H](O)[C@H]4O)[C@H](O)[C@H]3NC(C)=O)[C@H]2O)[C@@H](CO)O[C@H]1NC(=S)NCCNC(=O)OC(C)(C)C (some centres unmarked) [Compound 6, 6-biotin LacNAc-LacNAc-linker-NH2-tBoc]",Relative Potency,[2],1.0 ± 0.1
same,IC50,[2],14 µM and 14.8 µM
same,Relative Potency per Glycan,[2],1.0 ± 0.1
"CC(=O)N[C@@H]1[C@@H](O)[C@H](O[C@@H]2O[C@H](CO)[C@H](O)[C@H](O[C@@H]3O[C@H](CO)[C@@H](O[C@@H]4O[C@H](CNNC(=O)CCCCCNC(=O)CCCC[C@@H]5SCC6NC(=O)NC65)[C@H](O)[C@H](O)[C@H]4NC(C)=O)[C@H](O)[C@H]3NC(C)=O)[C@H]2O)[C@@H](CO)O[C@H]1NC(=S)NCCNC(=O)OC(C)(C)C (some centres unmarked) [Compound 7, 6-biotin LacdiNAc-LacNAc-linker-NH2-tBoc]",Relative Potency,[2],1.0 ± 0.2
same,IC50,[2],7.66 ± 1.24 µM
same,Relative Potency per Glycan,[2],1.0 ± 0.2
"CC(=O)N[C@@H]1[C@@H](O)[C@H](O[C@@H]2O[C@H](CO)[C@H](O)[C@H](O[C@@H]3O[C@H](CO)[C@@H](O[C@@H]4O[C@H](CO)[C@H](O)[C@H](O)[C@H]4NC(C)=O)[C@H](O)[C@H]3NC(C)=O)[C@H]2O)[C@@H](CO)O[C@H]1NC(=S)NCCNC(=O)OC(C)(C)C [Compound 2, LacdiNAc-LacNAc-linker-NH2-tBoc]",IC50,[2],~8 µM
"CC(=O)N[C@@H]1[C@@H](O)[C@H](O[C@@H]2O[C@H](CO)[C@H](O)[C@H](O[C@@H]3O[C@H](CO)[C@@H](O[C@@H]4O[C@H](CO)[C@H](O)[C@H](O)[C@H]4O)[C@H](O)[C@H]3NC(C)=O)[C@H]2O)[C@@H](CO)O[C@H]1NC(=S)NCCNC(=O)OC(C)(C)C [Compound 1, LacNAc-LacNAc-linker-NH2-tBoc]",IC50,[2],14 µM
"ASF: Asialofetuin, standard glycoprotein having nine N-glycosidic bound LacNAc units [reference compound]",Kd,[3],0.075 ± 0.002 µM
same,Binding signal Galectin-3,"[1]; 1 µM Gal-3, immobilized ligand 5 pmol per well",0.38 ± 0.10
same,Kd,"[1]; Gal-3 concentration at half-maximal binding to immobilized ligand (5 pmol), one site saturation fit, read-out: Apparent Kd",1.26 ± 0.25 µM
same,Relative Potency,"[1]; from apparent Kd, in relation to ASF",1.00 ± 0.20
same,Relative Potency per Glycan,"[1]; from apparent Kd, in relation to ASF, per glycan",0.11 ± 0.02
same,Binding signal Galectin-1,[4],0.40 ± 0.07
CC(=O)N[C@@H]1[C@@H](O)[C@H](O[C@@H]2O[C@H](CO)[C@H](O)[C@H](O[C@@H]3O[C@H](CO)[C@@H](O[C@@H]4O[C@H](CNNC(=O)CCCCCNC(=O)CCCC[C@@H]5SCC6NC(=O)NC65)[C@H](O)[C@H](O)[C@H]4NC(C)=O)[C@H](O)[C@H]3NC(C)=O)[C@H]2O)[C@@H](CO)O[C@H]1NC(=S)NCCN (some centres unmarked) [Compound 9],Gal-3 binding to immobilized tetrasaccharide (in words),[1],highest binding
same,selectivity for Gal-3 binding compared with Gal-1 (in words),[1],high selectivity
